test system: NICD (Notch intracellular domain) CSL-bla reporter in HeLa cells; test: Notch assay (CellSensor T-REx NICD CSL-bla HeLa beta-lactamase reporter; Method 1 / Method 2); assay type: cell-based; conditions: Homo sapiens, 10 μM compound, Method 1 (10× compound prepared in assay medium, added to plated cells), read-out: inhibiton (%) at 10 μM
Procedure, shortened: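 HeLa cells carrying doxycycline-inducible NICD and a CSL-driven beta-lactamase reporter, 10^3 cells/well, were treated with compound plus doxycycline for 16-20 h at 37 °C. CCF4-AM substrate was loaded for 4 h at room temperature; background-subtracted blue (460 nm)/green (530 nm) emission ratio taken per well.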

First: CCCC[C@H]1C(=O)N(CC2CCCCC2)CC2N(C(=O)OCc3cccc4ccccc34)O[C@@H](CC(N)=O)C(=O)N21 (stereo partly drawn) [Compound I-26, (3S,6S)-naphthalen-1-ylmethyl 3-(2-amino-2-oxoethyl)-6-butyl-8-(cyclohexylmethyl)-4,7-dioxohexahydropyrazino[2,1-c][1,2,4]oxadiazine-1(6H)-carboxylate]
Second: CC(C)CCN1CC2N(C(=O)OCc3cccc4ccccc34)O[C@@H](CC(N)=O)C(=O)N2[C@@H](CC2CCCCC2)C1=O (stereo partly drawn) [Compound I-27, (3S,6S)-naphthalen-1-ylmethyl 3-(2-amino-2-oxoethyl)-6-(cyclohexylmethyl)-8-isopentyl-4,7-dioxohexahydropyrazino[2,1-c][1,2,4]oxadiazine-1(6H)-carboxylate]
The inhibition at 10 µM of the first is higher: 68.4% for the first, 62.9% for the second.

First: CC(C)[C@H]1C(=O)N(Cc2cccc3ccccc23)CC2N(C(=O)OCc3cccc4ccccc34)O[C@H](CC(N)=O)C(=O)N21 (stereo partly drawn) [Compound I-19, (3R,6S)-naphthalen-1-ylmethyl 3-(2-amino-2-oxoethyl)-6-isopropyl-8-(naphthalen-1-ylmethyl)-4,7-dioxohexahydropyrazino[2,1-c][1,2,4]oxadiazine-1(6H)-carboxylate]
Second: CCCC[C@H]1C(=O)N(CCC(C)C)CC2N(C(=O)OCc3cccc4ccccc34)O[C@H](CC(N)=O)C(=O)N21 (stereo partly drawn) [Compound I-20, (3R,6S)-naphthalen-1-ylmethyl 3-(2-amino-2-oxoethyl)-6-butyl-8-isopentyl-4,7-dioxohexahydropyrazino[2,1-c][1,2,4]oxadiazine-1(6H)-carboxylate]
The inhibition at 10 µM of the first is higher: 67.3% for the first, 66.1% for the second.

Going from `CCCCCCOC(=O)N1O[C@@H](CCCC)C(=O)N2C1CN(Cc1ccccc1)C(=O)[C@@H]2Cc1ccc(O)cc1` (stereo partly drawn) [Compound I-4, (3S,6S)-hexyl 8-benzyl-3-butyl-6-(4-hydroxybenzyl)-4,7-dioxohexahydropyrazino[2,1-c][1,2,4]oxadiazine-1(6H)-carboxylate] to `CCCCCCOC(=O)N1O[C@@H](CC(C)C)C(=O)N2C1CN(Cc1ccccc1)C(=O)[C@@H]2Cc1ccc(O)cc1` (stereo partly drawn) [Compound I-5, (3S,6S)-hexyl 8-benzyl-6-(4-hydroxybenzyl)-3-isobutyl-4,7-dioxohexahydropyrazino[2,1-c][1,2,4]oxadiazine-1(6H)-carboxylate], the inhibition at 10 µM rises from 57.1% to 66.1%.

With `CCCCCCOC(=O)N1O[C@H](CCCC)C(=O)N2C1CN(CCC(C)C)C(=O)[C@@H]2Cc1ccc(O)cc1` (stereo partly drawn) [Compound I-2, (3R,6S)-hexyl 3-butyl-6-(4-hydroxybenzyl)-8-isopentyl-4,7-dioxohexahydropyrazino[2,1-c][1,2,4]oxadiazine-1(6H)-carboxylate] the inhibition at 10 µM was 53.5%.

same assay, conditions: Homo sapiens, 10 μM compound, Method 2 (40 nL of 1000× compound added to plate with Echo), read-out: inhibiton (%) at 10 μM

Going from `CC(C)CCOC(=O)N1O[C@H](Cc2ccc(O)cc2)C(=O)N2C1CN([C@@H](Cc1ccc(O)cc1)C(=O)NCCc1ccccc1)C(=O)[C@@H]2Cc1ccc(O)cc1` (stereo partly drawn) [Compound I-117, isopentyl (3R,6S)-3,6-bis(4-hydroxybenzyl)-8-((S)-3-(4-hydroxyphenyl)-1-oxo-1-(phenethylamino)propan-2-yl)-4,7-dioxohexahydropyrazino[2,1-c][1,2,4]oxadiazine-1(6H)-carboxylate] to `CCCCCOC(=O)N1O[C@H](Cc2ccccc2)C(=O)N2C1CN([C@@H](Cc1ccc(O)cc1)C(=O)NCCCC(C)C)C(=O)[C@@H]2Cc1ccc(O)cc1` (stereo partly drawn) [Compound I-111, pentyl (3R,6S)-3-benzyl-6-(4-hydroxybenzyl)-8-((S)-3-(4-hydroxyphenyl)-1-((4-methylpentyl)amino)-1-oxopropan-2-yl)-4,7-dioxohexahydropyrazino[2,1-c][1,2,4]oxadiazine-1(6H)-carboxylate], the inhibition at 10 µM falls from 59.7% to 53.9%.

Going from `O=C(NCCCO)[C@H](Cc1ccccc1)N1CC2N(C(=O)OCCc3ccc(O)cc3)O[C@H](Cc3ccccc3)C(=O)N2[C@@H](Cc2ccccc2)C1=O` (stereo partly drawn) [Compound I-81, 4-hydroxyphenethyl (3R,6S)-3,6-dibenzyl-8-((S)-1-((3-hydroxypropyl)amino)-1-oxo-3-phenylpropan-2-yl)-4,7-dioxohexahydro-pyrazino[2,1-c] [1,2,4]oxadiazine-1(6H)-carboxylate] to `O=C(NCCO)[C@H](Cc1ccccc1)N1CC2N(C(=O)OCCc3ccc(O)cc3)O[C@H](Cc3ccccc3)C(=O)N2[C@@H](Cc2ccccc2)C1=O` (stereo partly drawn) [Compound I-80, 4-hydroxyphenethyl (3R,6S)-3,6-dibenzyl-8-(S)-1-(2-hydroxyethyl)amino)-1-oxo-3-phenylpropan-2-yl)-4,7-dioxohexahydropyrazino[2,1-c][1,2,4]oxadiazine-1(6H)-carboxylate], the inhibition at 10 µM rises from 53% to 63%.

Compared with `CC(C)CCOC(=O)N1O[C@H](C)C(=O)N2C1CN([C@@H](Cc1ccccc1)C(=O)NCCO)C(=O)[C@@H]2Cc1ccccc1` (stereo partly drawn) [Compound I-88, isopentyl (3R,6S)-6-benzyl-8-((S)-1-((2-hydroxyethyl)amino)-1-oxo-3-phenylpropan-2-yl)-3-methyl-4,7-dioxohexahydropyrazino[2,1-c][1,2,4]oxadiazine-1(6H)-carboxylate], `CCCCCOC(=O)N1O[C@H](CC(C)C)C(=O)N2C1CN([C@@H](Cc1ccc(O)cc1)C(=O)NCCC(C)C)C(=O)[C@@H]2Cc1ccc(O)cc1` (stereo partly drawn) [Compound I-96, pentyl (3R,6S)-6-(4-hydroxybenzyl)-8-((S)-3-(4-hydroxyphenyl)-1-(isopentylamino)-1-oxopropan-2-yl)-3-isobutyl-4,7-dioxohexahydropyrazino[2,1-c][1,2,4]oxadiazine-1(6H)-carboxylate] is lower in inhibition at 10 µM: 63.9% for the first, 56.3% for the second.

Going from `CCCCCN1CC2N(C(=O)OCC3CCCCC3)O[C@H](Cc3ccccc3)C(=O)N2[C@@H](CCCCN)C1=O` (stereo partly drawn) [Compound I-28, (3R,6S)-cyclohexylmethyl 6-(4-aminobutyl)-3-benzyl-4,7-dioxo-8-pentylhexahydropyrazino [2,1-c][1,2,4]oxadiazine-1(6H)-carboxylate] to `CC(C)C[C@H]1ON(C(=O)OCC2CCCCC2)C2CN(CCc3ccccc3)C(=O)[C@H](CCCCN)N2C1=O` (stereo partly drawn) [Compound I-30, (3R,6S)-cyclohexylmethyl 6-(4-aminobutyl)-3-isobutyl-4,7-dioxo-8-phenethylhexahydropyrazino [2,1-c][1,2,4]oxadiazine-1(6H)-carboxylate], the inhibition at 10 µM rises from 99.7% to 117%.

Going from `CC(C)C[C@H]1ON(CCCC2CCN(S(=O)(=O)c3ccc(C#N)cc3)CC2)C2CN(C3CCN(C)CC3)C(=O)[C@H](CC(C)C)N2C1=O` (stereo partly drawn) [Compound I-152, 4-((4-(3-((3R,6S)-3,6-diisobutyl-8-(1-methylpiperidin-4-yl)-4,7-dioxohexahydro-pyrazino[2,1-c][1,2,4]oxadiazin-1(6H)-yl)propyl)piperidin-1-yl)sulfonyl)benzonitrile] to `O=C1[C@H](CO)N2C(=O)[C@@H](Cc3ccc(O)cc3)ON(C(=O)OCC3CCCCC3)C2CN1CCc1cccc2ccccc12` (stereo partly drawn) [Compound I-47, (3R,6S)-cyclohexylmethyl 3-(4-hydroxybenzyl)-6-(hydroxymethyl)-8-(2-(naphthalen-1-yl)ethyl)-4,7-dioxohexahydropyrazino[2,1-c][1,2,4]oxadiazine-1(6H)-carboxylate], the inhibition at 10 µM falls from 93.5% to 71.4%.

Source: patent US20230374034A1, “NOVEL BICYCLIC COMPOUNDS” (PRISM BIOLAB CO., LTD., priority 2020, published 2023)
